Measurements as given in patent US11179385B2 (THE TRUSTEES OF THE UNIVERSITY OF PENNSYLVANIA, priority 2015, dated 2021).

Legend:
[1] = tested on: melanoma in Tyr::creER, BRAF^ca, Phd2^lox/lox mice; assay: Topical resiquimod on melanoma progression in Tyr::creER, BRAFca, Phd2lox/lox mice; assay type: in vivo, mouse; details: topical 0.2% twice a week for 6 weeks
Description: FIGS. 2A-2L. […] FIG. 2A) Treatment scheme. FIG. 2B) Large tumor in a mouse treated with vehicle (n=10). FIG. 2C) Underside of skin filled with tumor. FIGS. 2D and 2E) Histology of melanoma in a control mouse. The dermis is filled with tumor cells. […] FIG. 2G) Underside of skin cleared of tumor. FIG. 2H) Histology of skin in a treated mouse, normal appearing. FIG. 2I) Macrophages with pigment are present in the dermis in a treated mouse. Arrow points to macrophages. FIG. 2J)Tumor growth curve. FIG. 2K) In situ melanoma in control mice. Arrows point to the tumor cells in the epidermis and hair follicle. I) Normal appearing epidermis in treated mice. *indicates p<0.05. Bars in b, c, f and g indicate 6 mm. Bars in d, e, h and I, indicate 200 μm. Bars in k and l indicate 10 μm.
The Tyr:creER, BRAF^ca, phd2^lox/lox mouse melanoma model was developed in Dr. Xu's lab. Melanoma can be induced with 100% penetrance using topical 4-HT. Lymph node metastasis is frequent in these mice. […] The melanoma in control mice grew and the tumor became very big at day 180 (FIG. 2B). These mice were sacrificed. The underside of skin was occupied completely by tumor (FIG. 2C). Histologically, the dermis was filled entirely by melanoma cells (FIG. 2D and FIG. 2E). […] Histologically, dermal melanoma had regressed (FIG. 2H) and numerous macrophages with pigment were present in the dermis (FIG. 2I), indicating melanoma has regressed. None of the treated mice developed lymph node metastasis.

[2] = tested on: melanoma in Tyr::creER, BRAF^ca, Pten^lox/lox mice; assay: Topical resiquimod gel on melanoma progression in Tyr::creER, BRAFca, Ptenlox/lox mice; assay type: in vivo, mouse
Description: FIGS. 3A-3I. […] FIG. 3A) Treatment scheme. FIG. 3B) Representative image of a mouse with control treatment (n=15). […] FIG. 3D) Histology of melanoma in a control mouse. […] FIG. 3E) Histology of melanoma in a treated mouse. […] Bars indicate 6 mm in FIG. 3B and FIG. 3C, 400 μm in FIG. 3D and FIG. 3E and 50 μm in FIG. 3H and FIG. 3I.
FIGS. 4A-4I. […] FIG. 4A) Treatment scheme. […] All measurement was compared to the control. *indicates p<0.05.
Tumor and spleen tissues were processed and multicolor flow cytometry analysis was performed.

[3] = tested on: nevus-like pigmented tumors in Tyr::creER, BRAF^ca mice; assay: Topical resiquimod gel on pigmented tumor progression in Tyr::creER, BRAFca mice (nevus model); assay type: in vivo, mouse
Procedure: FIGS. 1A-1I. […] FIG. 1A) Treatment scheme. […] FIG. 1D) Pigmented lesion in a mouse before treatment. […] FIG. 1F) Histology of tumor treated with vehicle. […] Bars in b-e indicate 6 mm. Bars in f-h indicate 200 μm.
A majority of nevi and melanomas contain BRAF mutations, particularly the BRAFV600E mutation.
Mice treated with blank topical gel were used as controls. […] Tumor diameters were measured using calipers every three days.

[4] = tested on: B16-F10 melanoma cells in CD8 depleted C57 mice; assay: Resiquimod gel in CD8 depleted C57 mice with B16-F10 melanoma; assay type: in vivo, mouse
Procedure: (§1) Once these mice developed palpable tumors, resiquimod treatment was administered twice a week. […] CD8 depletion was achieved using anti-CD8 antibody. […]

[5] = tested on: melanoma in Tyr::creER, BRAF^ca, Pten^lox/lox mice; assay: Resiquimod in combination with anti-PD1 therapy in Tyr::creER, BRAFca, Ptenlox/lox mice; assay type: in vivo, mouse; details: 0.2% resiquimod twice a week for 6 weeks; anti-PD1 200 μg i.p. twice a week for 5 weeks
Description: FIGS. 7A-7G. […] FIG. 7A) Treatment scheme. […] FIG. 7F) Effect of therapies on melanoma growth (n=5 each group). FIG. 7G) Effect of therapies on lymph node metastasis. *indicates p<0.05. **indicates p<0.01. Bars indicate 6 mm.

[6] = tested on: B16-F10 melanoma cells in RAG-1-deficient mice; assay: Resiquimod gel in RAG-1-deficient mice with B16-F10 melanoma; assay type: in vivo, mouse
Procedure: as §1

[7] = tested on: B16-F10 melanoma cells in C57BL/6J mice; assay: Topical resiquimod gel in the B16 melanoma model; assay type: in vivo, mouse
Description: FIGS. 5A-5E. […] FIG. 5A) Treatment scheme. […] Arrow points to the inflammatory cells. FIG. 5E) Fold changes in cytokine and chemokine mRNA expression in the tumor tissues from treated mice compared to control mice. *indicates p<0.05. Bars in d indicate 25 μm.
Tumor tissues were processed and we measured cytokine and chemokine mRNA expression in the tumor using qRT-PCR.

[8] = Stability and solubility of resiquimod in ethanol:PBS topical formulation (HPLC); assay type: physicochemical; details: 50:50 ethanol:pbs topical formulation aged for 2 weeks
[9] = tested on: T cells from spleen; assay: Cytokine release by T cells from spleen after stimulation; assay type: cell-based, mouse; details: resiquimod treated T cells from spleen
Procedure: as §1

[10] = tested on: T cell activation; cytokine induction; details: cited from earlier work
[11] = treated 3 weeks, flow cytometry of tumor
[12] = 0.2% resiquimod gel twice a week
[13] = qRT-PCR, compared to control mice

## CCOCc1nc2c(N)nc3ccccc3c2n1CC(C)(C)O [resiquimod, 1-[4-amino-2-(ethoxymethyl)imidazo[4,5-c]quinolin-1-yl]-2-methylpropan-2-ol]
[1]
  histology: dermal melanoma: regressed
  melanoma cells in the epidermis (in situ melanoma): disappeared after treatment
  treated mice that developed lymph node metastasis: None
  tumor on underside of skin: significantly less tumors
[1]; started 140 days after induction
  melanoma growth: inhibited
[2]; resiquimod gel twice a week for 6 weeks vs control vehicle
  melanoma growth (tumor volume): significantly slowed melanoma growth
[2]; treated 3 weeks
  tumor thickness: significantly thinner tumors
[2]; [11]
  CD45+CD11B+F4/80-Ly6g high MDSCs in the tumor: decrease
  PD1+CD8+ T cells: significantly increased
  expression of granzyme B in CD8^- T cells: increased
  intratumoral CD45+ inflammatory cells: significant increase
  number of GranB+CD8+ T cells: increased
  number of GranB+CD8+Ki-67+ T cells: increased
[2]; treated 3 weeks, sacrificed on treatment, control: all 5 mice
  mice that developed lymph node metastasis: 2 of 5
[2]; treated 3 weeks, control 2-4 per mouse
  positive lymph nodes per mouse with metastasis: 1
[2]; twice a week for 6 weeks
  histology: infiltration of melanoma through skeletal muscle: did not infiltrate through the skeletal muscle
  in situ melanoma in the epidermis: disappeared after treatment
  lifespan (survival) of treated mice: prolonged the lifespan
[3]; 0.2% resiquimod topical gel twice a week for six weeks vs blank gel
  pigmented lesion growth (tumor diameter): regressed
[3]; 0.2% topical gel twice a week for six weeks
  histology: pigmented tumor cells in the dermis: disappeared
[3]; 0.2% topical gel twice a week for six weeks, data not shown
  pigmented tumor cells in the epidermis: regressed completely
[3]; different experiment, topical resiquimod for 1 month
  palpable pigmented lesion after treatment: disappeared after treatment
[4]; CD8-depleted mice
  effect of resiquimod on survival curves: abolished
[4]; CD8 T cell depleted mice (anti-CD8 antibody), resiquimod twice a week
  effect on melanoma: little effect
[5]
  lymph node metastasis (number of positive lymph nodes): significantly reduced
  melanoma growth (tumor volume): significantly slowed melanoma growth
[6]; RAG-1-deficient mice, resiquimod gel twice a week
  effect on melanoma growth: little effect
[6]; Rag-1-deficient mice
  effect of resiquimod on survival curves: abolished
[7]; [12]
  histology: inflammatory cells in the tumor: more inflammatory cells
  lifespan (survival) of treated mice: prolonged the lifespan
  melanoma growth: significantly slowed the melanoma growth
[7]; [13]
  CCL2 mRNA expression in the tumor: increased
  INF-γ mRNA expression in the tumor: increased
  TNF-α mRNA expression in the tumor: increased
[8]
  solubility in base formulation: soluble
[9]
  expression of IFN-γ by T cells after stimulation: increased expression
[10]
  induction of IFN-α, TNF-α, IL-1, IL-6, IL-8 and IL-12 compared with imiquimod: more potent inducer
